This is an account of results in patent US12434040B2, “Applicator for a microneedle array patch delivery system” (VAXESS TECHNOLOGIES, INC., priority 2023, dated 2025).

For series [1] the following is noted: rat, in vivo, 220 ug.
Experimental: (§1) The first study was a pilot study evaluating the impact of array size and dose per needle on the PK profile. Approximately 324 μg of GLP-1 was formulated in Form 1 and delivered with a 60 vs a 90-microneedle array (FIG. 25A). […] The second study was a pilot study evaluating˜5 μg per needle formulated in either Form 1 or Form 2 each delivered with a 61-microneedle array.
(§2) A follow up PK study, with more extensive sampling, particularly in the first 48 hours, was carried out next.
(§3) A dose matched sample formulated in Tris buffer delivered by the subcutaneous route was included as a comparator. MAP dose loading and delivery was confirmed by RP-HPLC (FIG. 26A, top panels). […] The inset in FIG. 26A plots the total area under the curve (AUC) which is a measure of the total exposure to drug product for each animal, for each treatment group and serves as an estimate of bioavailability.
(§4) Male Sprague-Dawley rats (n≥5) of approximately 350-450 g and male Göttingen mini-pigs of 25-30 kg (n≥3) are used in pharmacokinetic studies. […] Individual animal plasma concentration-time values are used to calculate plasma concentration-time data for each delivery route and analyzed by noncompartmental pharmacokinetics using standard PK software.
Series [2] can be described thus: Rat PK studies (MAP vs subcutaneous), with body weights and application site observations. Particulars: rat follow up study; target dose 220 μg.
Experimental: as §1, §2, §3, §4

Take semaglutide [SQ delivered GLP-1]: in series [1], the “AUC (bioavailability)” value is recorded as “some variation in the AUC”. Besides, the “weight loss by Day 4” value in series [2] was determined as 10%.
